Residues, ends and D or L forms follow the SMILES beside them. *: point of attachment. Cbz = O=C(OCc1ccccc1)*

One data set has as its system Panc-1 cells. The data set is described as follows: MTS cytotoxicity assay, Panc-1 cells pre-treated with control or CH101. In kind it is cell-based. As to conditions: Panc-1, weakly metastatic pancreatic cell, 48 h control or CH101 pre-treatment, then 72 h drug. How it is done:
FIG. 7. Combining CH101 with oxaliplatin synergistically functions to reduce the IC50 in the weakly metastatic pancreatic cell Panc-1. Panc-1 cells (10^6) were plated in 96-well plates and either pre-treated with control (top panel) or CH101 (bottom panel) for 48 h in a 37 degree C incubator. Panc-1 cells were then treated with various doses of oxaliplatm and further incubated for 72 hours. Cytotoxicity was measured using the classical MTS assay.

Another data set relates to IFN-γ. The data set is described as follows: In vitro cross-presentation assay (IFN-γ release by B3Z cells). In kind it is cell-based, mouse. As to conditions: Hsp25-siRNA- and control-siRNA-treated BMDC; 10 μM.
The subject of another data set is AsPC1 cells. The data set is described as follows: MTS cytotoxicity assay, AsPC1 cells pre-treated with control or CH101. In kind it is cell-based. To be noted: Homo sapiens, AsPC1, highly metastatic pancreatic cell, 48 h control or CH101 pre-treatment, then 72 h drug. How it is done: FIG. 8A-B. Combining CH101 with oxaliplatm synergistieally functions to reduce the IC50 in the highly agreesive, highly metastatic pancreatic cell, AsPC1, AsPC1 cells (10^6) were plated in 96-well plates and either pre-treated with control (top panel) or CH101 (bottom panel) for 48 hrs in a 37 degree C incubator. AsPC1 cells were then treated with various doses of oxaliplatm (A) or irlootecan (B) and further incubated for 72 h. Cytotoxicity was measured using the classical MTS assay.

The subject of data set [1] is MDA-MB-231, AsPC1, MCF7, Panc-1. The data set can be described thus: CH101 against highly metastatic versus non- or weakly metastatic cancers. As to conditions: MDA-MB-231 and AsPC1 versus MCF7 and Panc-1. Format: cell-based.

On to `O=C1[O][Pt]2([NH][C@@H]3CCCC[C@H]3[NH]2)[O]C1=O` [oxaliplatin], for which the IC50 in the data set on Panc-1 cells was found to be 23 µM.

Consider `CC(C)C[C@@H](C=O)NC(=O)[C@H](CC(C)C)NC(=O)[C@H](CC(C)C)NC(=O)OCc1ccccc1` [MG-132] (Cbz-Leu-Leu-Leu-aldehyde), for which the “IFN-γ released by B3Z cells after proteasome inhibitor pre-treatment” value in the data set on IFN-γ is listed as “significantly reduced the concentration of released IFN-γ”.

For `CCc1c2c(nc3ccc(OC(=O)N4CCC(N5CCCCC5)CC4)cc13)-c1cc3c(c(=O)n1C2)COC(=O)[C@]3(O)CC` [irinotecan], the IC50 with AsPC1 cells amounted to 36.8 µM.

B1: CH101: cocktail of two dsRNA molecules, dsRNA SEQ ID NO:8/SEQ ID NO:9 and dsRNA SEQ ID NO:10/SEQ ID NO:11, blocking Hsp27 (nucleic acid)
chain 1: AAGGACGAGCATGGCTACATC
chain 2: GATGTAGCCATGCTCGTCCTT
chain 3: CACAGCCGCCTCTTCGATCAA
chain 4: TTGATCGAAGAGGCGGCTGTG
modifications: two duplexes cocktail, further chemistry not given here
Turning to B1, the “relative effectiveness by metastatic type of cancer” value in data set [1] was “more effective against highly metastatic cancers”.

One may read the IC50 as the concentration that inhibits the measured activity by half.

The values are drawn from US20140351961A1, “COMPOSITIONS AND METHODS FOR TREATMENT OF METASTATIC CANCER” (priority 2011, published 2014).
